Laboratory results from PMC4115637 (Pharmacology Research & Perspectives, 2014).

Columns and labels:
human TRPA1 = human TRPA1 (Homo sapiens, UniProt O75762); assay: Calcium flux in HEK-293 cells overexpressing TRPA1; assay type: cell-based; settings: concentrations up to 1 mmol/L
human TRPV2 = target: T1, human TRPV2 (Homo sapiens, UniProt Q9Y5S1); assay: Calcium flux in HEK-293 cells overexpressing TRPV2; assay type: cell-based; settings: concentrations up to 1 mmol/L
T1 sequence (Q9Y5S1 1-764): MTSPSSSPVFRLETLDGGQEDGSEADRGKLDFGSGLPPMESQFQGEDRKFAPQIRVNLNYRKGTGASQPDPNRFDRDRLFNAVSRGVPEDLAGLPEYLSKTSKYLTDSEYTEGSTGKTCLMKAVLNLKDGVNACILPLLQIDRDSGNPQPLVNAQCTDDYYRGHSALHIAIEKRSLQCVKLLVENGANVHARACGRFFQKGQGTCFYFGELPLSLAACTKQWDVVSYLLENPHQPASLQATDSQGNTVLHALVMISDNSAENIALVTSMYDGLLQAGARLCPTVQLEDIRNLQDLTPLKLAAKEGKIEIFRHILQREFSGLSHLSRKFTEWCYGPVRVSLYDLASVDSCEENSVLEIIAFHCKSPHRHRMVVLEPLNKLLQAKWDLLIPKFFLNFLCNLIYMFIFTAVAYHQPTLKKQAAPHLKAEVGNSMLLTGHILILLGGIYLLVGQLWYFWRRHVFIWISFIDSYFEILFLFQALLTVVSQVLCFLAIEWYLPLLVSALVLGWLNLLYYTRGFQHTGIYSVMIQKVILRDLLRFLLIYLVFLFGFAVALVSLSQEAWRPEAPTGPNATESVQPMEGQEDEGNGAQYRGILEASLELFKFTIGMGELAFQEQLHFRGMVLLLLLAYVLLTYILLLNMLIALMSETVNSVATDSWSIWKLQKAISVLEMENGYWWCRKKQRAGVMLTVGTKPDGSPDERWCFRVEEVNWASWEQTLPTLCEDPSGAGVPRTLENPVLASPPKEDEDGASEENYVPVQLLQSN

human TRPV3 = target: T2, human TRPV3 (Homo sapiens, UniProt Q8NET8); assay: Re-evaluation of screening hits as TRPV3 agonists; assay type: cell-based; settings: Table 1
T2 sequence (Q8NET8 1-790): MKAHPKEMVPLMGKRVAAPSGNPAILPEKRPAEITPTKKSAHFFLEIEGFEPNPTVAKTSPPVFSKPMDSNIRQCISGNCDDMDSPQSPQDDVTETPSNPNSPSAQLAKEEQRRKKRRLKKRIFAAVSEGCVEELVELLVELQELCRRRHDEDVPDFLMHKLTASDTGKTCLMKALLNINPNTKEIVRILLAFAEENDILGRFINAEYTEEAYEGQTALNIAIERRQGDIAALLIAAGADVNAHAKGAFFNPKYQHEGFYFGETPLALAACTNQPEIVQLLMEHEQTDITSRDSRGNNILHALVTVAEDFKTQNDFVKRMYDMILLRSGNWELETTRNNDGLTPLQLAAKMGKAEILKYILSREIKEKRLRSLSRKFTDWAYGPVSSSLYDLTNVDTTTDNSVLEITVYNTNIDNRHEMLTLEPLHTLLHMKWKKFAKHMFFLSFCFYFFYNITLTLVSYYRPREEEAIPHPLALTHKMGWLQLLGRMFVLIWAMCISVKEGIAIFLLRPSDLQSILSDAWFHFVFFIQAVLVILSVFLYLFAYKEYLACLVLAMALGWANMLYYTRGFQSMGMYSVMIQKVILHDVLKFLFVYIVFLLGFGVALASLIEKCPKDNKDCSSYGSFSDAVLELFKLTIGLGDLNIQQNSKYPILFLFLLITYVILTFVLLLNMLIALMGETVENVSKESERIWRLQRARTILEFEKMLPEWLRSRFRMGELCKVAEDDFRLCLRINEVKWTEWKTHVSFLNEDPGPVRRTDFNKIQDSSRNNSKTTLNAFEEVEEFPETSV

[1] = system: neomycin-induced hair cell loss; settings: ref Coffin et al. [2010]; cited from earlier work

human TRPA1, sequence (O75762 whole entry): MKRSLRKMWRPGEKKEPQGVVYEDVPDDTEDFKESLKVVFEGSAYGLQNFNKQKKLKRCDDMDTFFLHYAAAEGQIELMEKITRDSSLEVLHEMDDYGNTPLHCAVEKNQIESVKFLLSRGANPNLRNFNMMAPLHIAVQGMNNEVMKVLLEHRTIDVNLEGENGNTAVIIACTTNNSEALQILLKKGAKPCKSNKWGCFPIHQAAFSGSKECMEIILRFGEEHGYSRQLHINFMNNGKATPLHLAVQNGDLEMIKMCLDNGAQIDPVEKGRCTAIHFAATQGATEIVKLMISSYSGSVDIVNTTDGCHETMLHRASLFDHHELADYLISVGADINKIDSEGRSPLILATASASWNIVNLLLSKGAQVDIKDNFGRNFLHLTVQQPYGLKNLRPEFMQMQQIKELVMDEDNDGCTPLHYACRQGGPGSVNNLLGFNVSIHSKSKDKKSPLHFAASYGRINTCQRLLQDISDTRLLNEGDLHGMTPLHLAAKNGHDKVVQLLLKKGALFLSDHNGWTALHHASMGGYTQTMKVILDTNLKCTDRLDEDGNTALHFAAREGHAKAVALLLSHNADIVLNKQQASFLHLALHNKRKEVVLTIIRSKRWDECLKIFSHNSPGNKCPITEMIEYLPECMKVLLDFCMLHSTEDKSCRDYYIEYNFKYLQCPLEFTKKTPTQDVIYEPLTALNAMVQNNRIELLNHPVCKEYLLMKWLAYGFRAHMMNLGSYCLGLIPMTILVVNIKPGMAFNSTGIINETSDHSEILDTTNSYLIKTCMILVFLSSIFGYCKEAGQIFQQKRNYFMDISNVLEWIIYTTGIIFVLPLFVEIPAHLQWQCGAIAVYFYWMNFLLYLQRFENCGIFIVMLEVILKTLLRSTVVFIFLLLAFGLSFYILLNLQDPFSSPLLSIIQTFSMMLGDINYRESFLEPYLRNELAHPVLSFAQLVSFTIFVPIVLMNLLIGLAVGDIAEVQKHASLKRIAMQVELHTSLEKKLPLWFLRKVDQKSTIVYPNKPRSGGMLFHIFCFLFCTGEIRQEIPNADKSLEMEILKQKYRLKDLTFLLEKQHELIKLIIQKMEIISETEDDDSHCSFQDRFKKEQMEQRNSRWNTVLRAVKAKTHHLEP

activation of TRPA1 (human TRPA1): not observed
activation of TRPV2 (human TRPV2): not observed
Comment(s): re-evaluation as TRPV3 agonist (human TRPV3): TRPV3-selective agonist
Compound: CCN(CC)CCOC(=O)C(c1ccccc1)C1CCCCC1 (stereo not shown) [drofenine]
effect on neomycin-induced hair cell loss [1]: inhibitor of neomycin-induced hair cell loss
